Results as given in patent EP2423181A1, “Multitarget substituted biphenyl diol derivatives” (PROUS INSTITUTE FOR BIOMEDICAL RESEARCH S.A., priority 2010, dated 2012).
Structures can show the parent of a compound that is named as a salt.

How the values were obtained:
[1] = target: T1, 5-LO (Homo sapiens, UniProt P09917); test: 5-Lipoxygenase inhibition (LTB4 enzyme immunoassay); type: biochemical; conditions: 5-LO, at 10 µM; read-out: % Inhibition
T1 construct: host or cells: Sf9 insect cells
T1 sequence (P09917 1-674): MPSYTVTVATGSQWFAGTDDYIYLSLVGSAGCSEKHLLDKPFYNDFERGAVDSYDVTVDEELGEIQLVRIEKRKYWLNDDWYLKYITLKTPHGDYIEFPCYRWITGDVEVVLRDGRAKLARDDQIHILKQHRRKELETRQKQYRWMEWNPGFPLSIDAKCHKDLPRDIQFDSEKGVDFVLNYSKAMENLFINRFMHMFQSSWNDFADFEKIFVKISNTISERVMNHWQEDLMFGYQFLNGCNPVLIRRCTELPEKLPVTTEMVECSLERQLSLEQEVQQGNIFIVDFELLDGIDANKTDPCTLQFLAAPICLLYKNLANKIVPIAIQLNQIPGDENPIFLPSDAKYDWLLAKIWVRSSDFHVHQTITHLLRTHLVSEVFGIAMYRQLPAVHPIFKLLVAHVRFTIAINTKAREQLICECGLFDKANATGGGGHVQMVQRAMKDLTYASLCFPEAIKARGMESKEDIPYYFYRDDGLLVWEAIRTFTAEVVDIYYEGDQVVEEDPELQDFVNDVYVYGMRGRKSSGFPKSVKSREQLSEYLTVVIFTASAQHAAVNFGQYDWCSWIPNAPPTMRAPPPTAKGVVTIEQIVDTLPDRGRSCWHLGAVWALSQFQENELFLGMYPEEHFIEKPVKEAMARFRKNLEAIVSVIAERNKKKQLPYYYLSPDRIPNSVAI
Method: The 5-LO-inhibitory activity of compounds of the invention was determined using previously reported assays. Briefly, lipoxygenase activity was evaluated in human recombinant insect Sf9 cells using 3µM arachidonic acid as a substrate with a preincubation and incubation times of 15 and 5 min respectively at 25°C in a 50 mM Tris-HCl, pH 7.4, 2 mM CaCl2, 1 mM ATP. The quantification method used was enzyme immunoassay determination of LTB4 and the significance criteria were established with a response equal or different of the maximum stimulation or inhibition (Noguchi, M. et al., Eur J Biochem, 1994, 222(2), 285-292; Percival, M.D. et al., Eur J Biochem, 1992, 210(1), 109-117).

[2] = test system: mice; test: Formalin test (antinociceptive activity); type: in vivo; conditions: formalin test, dose 10 mg/Kg i.p.
Method: The chemical irritant formalin test is used as a chronic pain model in animals. The s.c. administration of formalin to the paw of a mouse produces a biphasic nociceptive behavioral response, an early response (0-5 min after injection) and a late response (20-30 min after injection) (Hunskaar, S., Fasmer, O.B., Hole, K. Formalin test in mice, a useful technique for evaluating mild analgesics. J Neurosci Methods, 1985 ;14(1):69-76).
Aspirine and paracetamol are included as external active references in early and late response. Table 12. Early and late response inhibition in the formalin test.

Row | SMILES | inhibition at 10 µM [1] | Early Response ([2]; early response 0-5 min) | Late Response ([2]; late response 20-30 min)
1 | CCCc1ccc(O)c(-c2ccc(OC(CCNC)c3ccccc3)c(CCC)c2)c1 (stereo not drawn) [Example 6, 4'-[3-(Methylamino)-1-phenylpropoxy]-3',5-dipropylbiphenyl-2-ol hydrochloride] | 100% | – | –
2 | CN1CC[C@]23c4c5ccc(O)c4O[C@H]2[C@@H](O)C=C[C@H]3[C@H]1C5 [Morphine, reference compound] | – | active | active
